The subject of assay [1] is patients with PDGFRβ hyperactivating mutations. The following applies: cited from earlier work.
The target in another assay is PDGFRα (Homo sapiens, UniProt P16234). The following applies: cited from earlier work.
For another assay, the target named is PDGFRβ (Homo sapiens, UniProt P09619). The following applies: not specific for PDGFRβ; cited from earlier work.
In a further assay the target is c-Kit (Homo sapiens, UniProt P10721). The settings on record: cited from earlier work.
A further assay relates to Prox1^ΔVEC mice. The settings on record: 50 mg/kg body weight/day oral; for aortic peak velocity: 24 weeks from 1 month of age, echocardiography, vs untreated Prox1^ΔVEC mice; for aortic peak velocity / platelet aggregate-like (thrombus-like) structures in aortic valves / abnormal elastin expression/distribution in aortic valves / aortic valve thickness (progressive thickening) / versican expression in aortic valves: 50 mg/kg/day; for platelet aggregate-like (thrombus-like) structures in aortic valves / abnormal elastin expression/distribution in aortic valves / aortic valve thickness (progressive thickening) / versican expression in aortic valves: 24 weeks; for platelet aggregate-like (thrombus-like) structures in aortic valves: Movat Pentachrome-stained sections; for abnormal elastin expression/distribution in aortic valves: downstream side of aortic valves; for aortic valve thickness (progressive thickening): histology, area of valve leaflets; for versican expression in aortic valves: immunohistochemistry; for valve defects / progression of valve disease: mice lacking Prox1 (Prox1^ΔVEC).

“Also recorded” adds a separate entry of the source. Like-named read-outs stand apart in the source and are kept apart here.

Sequence of PDGFRα (P16234 24-1089, species assumed): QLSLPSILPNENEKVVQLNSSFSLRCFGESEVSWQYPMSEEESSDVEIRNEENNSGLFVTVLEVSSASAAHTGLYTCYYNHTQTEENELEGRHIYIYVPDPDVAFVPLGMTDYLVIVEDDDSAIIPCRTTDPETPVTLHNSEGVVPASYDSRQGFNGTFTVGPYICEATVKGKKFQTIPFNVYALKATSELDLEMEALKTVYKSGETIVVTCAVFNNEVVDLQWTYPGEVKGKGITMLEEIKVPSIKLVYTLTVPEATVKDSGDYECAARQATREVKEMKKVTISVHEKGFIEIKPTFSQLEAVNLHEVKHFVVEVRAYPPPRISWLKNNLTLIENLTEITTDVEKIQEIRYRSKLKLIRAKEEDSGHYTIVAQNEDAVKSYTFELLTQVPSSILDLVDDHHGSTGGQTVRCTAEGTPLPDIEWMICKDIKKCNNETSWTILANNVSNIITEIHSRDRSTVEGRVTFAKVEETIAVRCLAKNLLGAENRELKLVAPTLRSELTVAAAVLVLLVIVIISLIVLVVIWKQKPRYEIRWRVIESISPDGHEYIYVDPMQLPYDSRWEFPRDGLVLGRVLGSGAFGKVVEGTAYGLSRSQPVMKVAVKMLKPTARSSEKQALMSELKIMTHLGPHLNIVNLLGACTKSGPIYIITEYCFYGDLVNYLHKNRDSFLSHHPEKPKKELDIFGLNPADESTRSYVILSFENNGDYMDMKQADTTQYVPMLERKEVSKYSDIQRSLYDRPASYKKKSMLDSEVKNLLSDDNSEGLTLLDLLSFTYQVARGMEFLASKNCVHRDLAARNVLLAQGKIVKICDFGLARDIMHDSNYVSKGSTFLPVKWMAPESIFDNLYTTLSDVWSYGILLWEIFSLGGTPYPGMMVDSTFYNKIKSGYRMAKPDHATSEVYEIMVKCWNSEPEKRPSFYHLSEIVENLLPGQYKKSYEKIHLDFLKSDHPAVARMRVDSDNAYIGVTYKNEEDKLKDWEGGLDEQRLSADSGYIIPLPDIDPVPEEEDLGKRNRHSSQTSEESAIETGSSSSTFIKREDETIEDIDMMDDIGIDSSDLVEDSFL
Sequence of c-Kit (P10721 26-976): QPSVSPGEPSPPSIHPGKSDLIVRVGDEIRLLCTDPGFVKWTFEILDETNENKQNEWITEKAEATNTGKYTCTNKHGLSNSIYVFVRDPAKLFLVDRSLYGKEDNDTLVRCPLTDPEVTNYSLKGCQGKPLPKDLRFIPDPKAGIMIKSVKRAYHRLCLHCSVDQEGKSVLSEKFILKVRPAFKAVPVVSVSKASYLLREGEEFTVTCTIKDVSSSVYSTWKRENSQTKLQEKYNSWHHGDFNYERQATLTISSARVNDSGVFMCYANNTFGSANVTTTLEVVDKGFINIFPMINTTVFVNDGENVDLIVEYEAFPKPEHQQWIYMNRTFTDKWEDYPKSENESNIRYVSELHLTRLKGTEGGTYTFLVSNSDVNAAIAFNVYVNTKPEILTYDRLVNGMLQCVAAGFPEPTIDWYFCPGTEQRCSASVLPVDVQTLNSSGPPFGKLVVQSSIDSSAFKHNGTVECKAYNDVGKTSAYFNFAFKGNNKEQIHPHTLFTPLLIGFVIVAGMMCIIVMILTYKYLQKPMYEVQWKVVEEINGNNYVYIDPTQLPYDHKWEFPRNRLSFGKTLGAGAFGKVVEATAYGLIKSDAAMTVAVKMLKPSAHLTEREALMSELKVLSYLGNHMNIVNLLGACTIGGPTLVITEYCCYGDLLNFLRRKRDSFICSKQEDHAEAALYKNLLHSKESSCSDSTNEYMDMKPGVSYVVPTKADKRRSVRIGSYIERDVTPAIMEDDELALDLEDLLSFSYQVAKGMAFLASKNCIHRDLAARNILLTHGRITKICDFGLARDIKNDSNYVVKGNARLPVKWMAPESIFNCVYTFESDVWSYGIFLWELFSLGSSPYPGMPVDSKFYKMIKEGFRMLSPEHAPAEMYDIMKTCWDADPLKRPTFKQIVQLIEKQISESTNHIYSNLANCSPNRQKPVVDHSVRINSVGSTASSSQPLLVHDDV
Sequence of PDGFRβ (P09619 33-1106): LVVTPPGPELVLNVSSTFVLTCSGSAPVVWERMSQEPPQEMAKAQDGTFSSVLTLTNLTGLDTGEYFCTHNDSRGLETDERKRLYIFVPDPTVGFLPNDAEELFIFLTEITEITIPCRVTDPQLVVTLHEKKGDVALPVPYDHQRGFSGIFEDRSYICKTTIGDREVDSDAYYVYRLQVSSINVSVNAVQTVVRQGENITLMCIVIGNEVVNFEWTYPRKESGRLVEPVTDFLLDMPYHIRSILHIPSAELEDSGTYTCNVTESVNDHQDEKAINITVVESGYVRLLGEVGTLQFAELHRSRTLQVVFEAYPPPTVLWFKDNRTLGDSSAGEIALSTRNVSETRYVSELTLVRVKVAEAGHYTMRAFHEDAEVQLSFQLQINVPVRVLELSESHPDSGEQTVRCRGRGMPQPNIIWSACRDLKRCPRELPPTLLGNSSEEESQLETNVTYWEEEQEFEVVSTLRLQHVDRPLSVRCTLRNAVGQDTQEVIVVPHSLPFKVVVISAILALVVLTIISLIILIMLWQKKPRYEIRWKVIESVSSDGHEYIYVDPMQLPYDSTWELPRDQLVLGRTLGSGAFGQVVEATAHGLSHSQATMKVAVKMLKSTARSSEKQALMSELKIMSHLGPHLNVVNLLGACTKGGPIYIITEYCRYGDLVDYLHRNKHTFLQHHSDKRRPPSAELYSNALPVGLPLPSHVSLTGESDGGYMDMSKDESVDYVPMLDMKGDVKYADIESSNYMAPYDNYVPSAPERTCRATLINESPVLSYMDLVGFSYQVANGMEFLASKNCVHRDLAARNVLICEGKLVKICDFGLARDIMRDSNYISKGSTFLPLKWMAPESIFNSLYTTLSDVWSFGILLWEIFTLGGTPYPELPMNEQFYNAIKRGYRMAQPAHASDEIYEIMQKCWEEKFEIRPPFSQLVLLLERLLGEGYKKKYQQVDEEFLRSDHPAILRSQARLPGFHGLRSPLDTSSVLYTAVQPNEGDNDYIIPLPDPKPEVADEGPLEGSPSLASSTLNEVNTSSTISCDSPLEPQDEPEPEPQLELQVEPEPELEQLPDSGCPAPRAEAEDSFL

Consider `Cc1ccc(NC(=O)c2ccc(CN3CCN(C)CC3)cc2)cc1Nc1nccc(-c2cccnc2)n1` [imatinib], for which the connective tissue disorders entry in assay [1] was “ameliorated”. Also, at PDGFRα, the “inhibition of kinase activity” value was “inhibits the activity”. Besides, the “inhibition of kinase activity” value at PDGFRβ is “inhibits the activity”. For the same compound, on c-Kit, the “inhibition of kinase activity” value is given as “inhibits the activity”. Further, in the assay on Prox1^ΔVEC mice (Prox1^ΔVEC mice, 6 months), the “elastin expression in mitral valves” value is “significantly normalized”; the “expression of SOX9 in the aortic and mitral valves” value is reported as “normalized”; the “thickness of the mitral valves” value is “did not reduce”; the “versican expression in mitral valves” value is recorded as “significantly normalized”. In the assay with Prox1^ΔVEC mice (Prox1^ΔVEC mice), the aortic peak velocity result is “preventing an increase in peak velocity”, the “platelet aggregate-like (thrombus-like) structures in aortic valves” value was “reduced by imatinib treatment”, the “abnormal elastin expression/distribution in aortic valves” value is on record as “significantly reduced” and the “aortic valve thickness (progressive thickening)” value is “does not ameliorate the progressive thickening”. In the assay with Prox1^ΔVEC mice (Prox1^ΔVEC mice), the “versican expression in aortic valves” value is “reduced the expression of versican”. In the assay on Prox1^ΔVEC mice (Prox1^ΔVEC mice, listed as Imb), the aortic peak velocity result is reported as “lowered aortic peak velocity”, the “platelet aggregate-like (thrombus-like) structures in aortic valves” value was “reduced”, the “abnormal elastin expression/distribution in aortic valves” value is given as “rescued” and the “aortic valve thickness (progressive thickening)” value is “not reduced”. Moreover, the “versican expression in aortic valves” value in the assay on Prox1^ΔVEC mice (Prox1^ΔVEC mice, listed as Imb) is recorded as “inhibited”. For the same compound, in the assay with Prox1^ΔVEC mice (6 months), the “valve defects / progression of valve disease” value was “partially rescue the valve defects; also recorded: prevents the progression of valve disease”. The “valve defects / progression of valve disease” value in the assay with Prox1^ΔVEC mice (6 months, listed as Imatinib) is listed as “Attenuates Aortic Valve Degeneration”.

These data come from US20240165199A1, “PROX1 PREVENTS MYXOMATOUS VALVE DISEASE BY INHIBITING PDGF-B SIGNALING” (Oklahoma Medical Research Foundation, priority 2022, published 2024).
